≈ marks a conversion by molar mass, not a printed value. Like-named read-outs stand apart in the source and are kept apart here.
Assays:
N. gonorrheae = test: In vitro activity against Neisseria (MIC), N. gonorrheae; format: cell-based
S. pyogenes = test: In vitro activity against Streptococci (MIC), S. pyogenes; format: cell-based
H. influenzae = test: In vitro activity against Haemophilis (MIC), H. influenzae; format: cell-based; conditions: Haemophilus influenzae, Compound 9 lot 2
H. influenza A9729 = test: Protective dose PD50, mice infected with lethal inoculum, oral treatment, H. influenza A9729; format: in vivo; conditions: Mus musculus, 120 h
Description: The structure activity correlations drawn from the foregoing in vitro studies are born out by the results of in vivo studies in mice. Table 4 is a tabulation of the protective doses for mice infected with a lethal inoculum of a bacteria. Two different bacteria were employed in the studies, one a Gram+ organism and the other a Gram- organism. The protective dose (PD50) is that dose which when administered to a group of infected mice results in 50% survival after five days. Normally untreated infected mice die within three days following injection of the lethal inoculum.
Protective Dose PD50 for Mice Infected with Lethal Inoculum

P. acnes A21933 = test: In vitro activity against anaerobes (MIC), P. acnes; format: cell-based; conditions: Cutibacterium acnes, A21933
S. aureus BX-1633 = test: Protective dose PD50, mice infected with lethal inoculum, oral treatment, S. aureus BX-1633; format: in vivo; conditions: Staphylococcus aureus, BX1633, 120 h
P. mirabilis A9554 = test: Protective dose PD50, mice infected with lethal inoculum, oral treatment, P. mirabilis A9554; format: in vivo
P. anaerobius A21905 = test: In vitro activity against anaerobes (MIC), P. anaerobius; format: cell-based; conditions: Peptostreptococcus anaerobius, A21905
S. pyogenes A20201 = test: Protective dose PD50, mice infected with lethal inoculum, oral treatment, S. pyogenes A20201; format: in vivo; conditions: Streptococcus pyogenes, 120 h
N. meningitidis = test: In vitro activity against Neisseria (MIC), N. meningitidis; format: cell-based
C. difficile A21675 = test: In vitro activity against anaerobes (MIC), C. difficile; format: cell-based; conditions: Clostridioides difficile, A21675
S. pneumoniae = test: In vitro activity against Streptococci (MIC), S. pneumoniae; format: cell-based; conditions: Streptococcus pneumoniae
B. fragilis = test: In vitro activity against anaerobes (MIC), B. fragilis; format: cell-based; conditions: Bacteroides fragilis

N[C@@H](C(=O)N[C@@H]1C(=O)N2C(C(=O)O)=C(Cl)CS[C@H]12)c1ccccc1 [Cefaclor]
MIC (N. gonorrheae): 0.8 µg/mL (≈ 2.18 µM)
MIC (N. gonorrheae; N. gonorrheae A20143, Compound 9 lot 2): 0.8 µg/mL (≈ 2.18 µM)
MIC (N. gonorrheae; N. gonorrheae A20154, Compound 9 lot 2): 0.8 µg/mL (≈ 2.18 µM)
MIC (N. gonorrheae; N. gonorrheae A20155, Compound 9 lot 2): 0.8 µg/mL (≈ 2.18 µM)
MIC (N. gonorrheae; read-out: MIC, Geometric Mean): 0.8 µg/mL (≈ 2.18 µM)
MIC (S. pyogenes; S. pyogenes A9604, Compound 9 lot 2): 0.2 µg/mL (≈ 0.544 µM)
MIC (S. pyogenes; S. pyogenes A15040, Compound 9 lot 2): 0.2 µg/mL (≈ 0.544 µM)
MIC (S. pyogenes; S. pyogenes A20065, Compound 9 lot 2): 0.2 µg/mL (≈ 0.544 µM)
MIC (S. pyogenes; S. pyogenes Dick, Compound 9 lot 2): 0.2 µg/mL (≈ 0.544 µM)
MIC (S. pyogenes; Streptococcus pyogenes): 0.2 µg/mL (≈ 0.544 µM)
MIC (S. pyogenes; Streptococcus pyogenes, read-out: MIC, Geometric Mean): 0.2 µg/mL (≈ 0.544 µM)
MIC (H. influenzae; H. influenzae A9729): 0.8 µg/mL (≈ 2.18 µM)
MIC (H. influenzae; H. influenzae A9833): 0.8 µg/mL (≈ 2.18 µM)
MIC (H. influenzae; H. influenzae A20177): 0.8 µg/mL (≈ 2.18 µM)
MIC (H. influenzae; H. influenzae A20193): 0.8 µg/mL (≈ 2.18 µM)
MIC (H. influenzae; H. influenzae A21523): 0.8 µg/mL (≈ 2.18 µM)
MIC (H. influenzae; H. influenzae A22482): 0.4 µg/mL (≈ 1.09 µM)
MIC (H. influenzae; H. influenzae A22483): 0.4 µg/mL (≈ 1.09 µM)
MIC (H. influenzae; read-out: MIC, Geometric Mean, H. influenzae, seven strains above): 0.66 µg/mL (≈ 1.79 µM)
ED50 (H. influenza A9729): 1.6 mg/kg
MIC (P. acnes A21933): 0.8 µg/mL (≈ 2.18 µM)
ED50 (S. aureus BX-1633): 2.2 mg/kg
Protective Dose PD50 (P. mirabilis A9554): 1.8
MIC (P. anaerobius A21905): 0.4 µg/mL (≈ 1.09 µM)
ED50 (S. pyogenes A20201): 0.14 mg/kg
MIC (N. meningitidis; N. meningitidis A20049): 0.8 µg/mL (≈ 2.18 µM)
MIC (N. meningitidis; N. meningitidis A21487, Compound 9 lot 2): 0.8 µg/mL (≈ 2.18 µM)
MIC (N. meningitidis; N. meningitidis A21496, Compound 9 lot 2): 0.8 µg/mL (≈ 2.18 µM)
MIC (N. meningitidis; N. meningitidis A21497, Compound 9 lot 2): 0.8 µg/mL (≈ 2.18 µM)
MIC (N. meningitidis; Neisseria meningitidis): 0.8 µg/mL (≈ 2.18 µM)
MIC (N. meningitidis; Neisseria meningitidis, read-out: MIC, Geometric Mean): 0.8 µg/mL (≈ 2.18 µM)
MIC (C. difficile A21675): 25 µg/mL (≈ 68 µM)
MIC (S. pneumoniae): 0.8 µg/mL (≈ 2.18 µM)
MIC (S. pneumoniae; read-out: MIC, Geometric Mean): 1.3 µg/mL (≈ 3.53 µM)
MIC (B. fragilis; B. fragilis A20928-1, β-lactamase (-)): 3.1 µg/mL (≈ 8.43 µM)
MIC (B. fragilis; B. fragilis A20935, β-lactamase (-)): 3.1 µg/mL (≈ 8.43 µM)
MIC (B. fragilis; B. fragilis A22021, β-lactamase (+)): > 100 µg/mL
MIC (B. fragilis; B. fragilis A22053, β-lactamase (+)): 100 µg/mL (≈ 272 µM)
MIC (B. fragilis; B. fragilis A22533, β-lactamase (+)): > 100 µg/mL
MIC (B. fragilis; B. fragilis A22693, β-lactamase (+)): > 100 µg/mL
MIC (B. fragilis; B. fragilis A22695, β-lactamase (+)): 100 µg/mL (≈ 272 µM)
MIC (B. fragilis; read-out: MIC, Geometric Mean, B. fragilis A20928-1, A21900, A20935, β-lactamase (-)): 3.9 µg/mL (≈ 10.6 µM)
MIC (B. fragilis; read-out: MIC, Geometric Mean, B. fragilis A22053, A22021, A22693, β-lactamase (+)): > 100 µg/mL
MIC (B. fragilis; read-out: MIC, Geometric Mean, B. fragilis A22695, A22533, β-lactamase (+)): > 100 µg/mL

Reference: US4520022A, “Substituted vinyl cephalosporins” (priority 1983, dated 1985)
